In publication PMC6544300, “Mechanism of the efflux transport of demethoxycurcumin-O-glucuronides in HeLa cells stably transfected with UDP-glucuronosyltransferase 1A1” (PLoS ONE, 2019):

Assays:
UGT1A1 = molecular target: T1, UGT1A1 (Homo sapiens, UniProt P22309); test: Chemical inhibition of DMC-O-glucuronidation by UGT1A1 inhibitors in HeLa1A1 cell lysate; assay type: biochemical; set-up: expressed in transfected cells; host or cells: HeLa cells stably overexpressing UGT1A1 (HeLa1A1), used as cell lysate; conditions: DMC 4 μM, HeLa1A1 cell lysate 2.3 mg/mL
T1 sequence (P22309 26-533): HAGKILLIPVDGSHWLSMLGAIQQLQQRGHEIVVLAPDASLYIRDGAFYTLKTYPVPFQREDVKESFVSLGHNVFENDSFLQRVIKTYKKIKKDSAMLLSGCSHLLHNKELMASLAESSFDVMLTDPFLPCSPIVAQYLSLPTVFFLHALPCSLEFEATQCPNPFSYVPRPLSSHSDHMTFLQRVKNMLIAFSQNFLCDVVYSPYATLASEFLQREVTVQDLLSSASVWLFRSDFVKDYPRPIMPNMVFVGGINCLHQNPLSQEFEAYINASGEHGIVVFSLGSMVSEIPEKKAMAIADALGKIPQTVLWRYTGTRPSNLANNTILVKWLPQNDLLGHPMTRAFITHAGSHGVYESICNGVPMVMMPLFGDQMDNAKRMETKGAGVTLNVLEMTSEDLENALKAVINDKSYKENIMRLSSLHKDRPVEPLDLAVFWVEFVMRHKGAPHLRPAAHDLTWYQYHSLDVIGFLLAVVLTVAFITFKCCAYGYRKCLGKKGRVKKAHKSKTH
Procedure: The glucuronidation assay was performed as previously described. Briefly, alamethicin (22 μg/mL), D-saccharic-1,4-lactone (4.4 mM), MgCl2 (0.88 mM), UGT1A1 (1.0 mg/mL) or HeLa1A1 cell lysates (2.3 mg/mL) and DMC (0.5 to 40 μM) were mixed in a 50 mM Tris buffer (pH 7.4). After a preincubation at 37°C for 5 min, UDPGA (3.5 mM) was added to the incubation system, and the mixture was further incubated. After 30 min, the reactions were terminated by the addition of ice-cold acetonitrile (200 μL). The mixed samples were centrifuged at 13,800 x g for 10 min, and the supernatant was analyzed using UHPLC.
Analyses of chemical inhibition and activity correlations were performed as two additional independent assays to determine the roles of the UGT1A1 enzyme. In these studies, nilotinib (10 μM), glycyrrhetinic acid (20 μM) and protopanaxatriol (500 μM) were used as UGT1A1 inhibitors to investigate the metabolic activities of DMC (4 μM). The incubation conditions were the same as those used for the glucuronidation activity assays.

MRP3 = molecular target: T2, MRP3 (Homo sapiens, UniProt O15438); test: shRNA-mediated MRP3 knock-down, glucuronide excretion in HeLa1A1 cells; assay type: cell-based; conditions: DMC 4 μM; for decrease of fmet value: MRP3 partial knock-down, Fig 10E; for decrease in efflux excretion clearance / increase in intracellular level: MRP3 silencing; for decrease in efflux excretion clearance: Fig 10C; for increase in intracellular level: Fig 10D
T2 construct: BCRP, MRP1, MRP3, and MRP4 were detected in both wild-type HeLa and HeLa1A1 cells; endogenous in cells; host or cells: HeLa1A1 cells (MRP3-shRNA versus scrambled shRNA)
T2 sequence (O15438 whole entry): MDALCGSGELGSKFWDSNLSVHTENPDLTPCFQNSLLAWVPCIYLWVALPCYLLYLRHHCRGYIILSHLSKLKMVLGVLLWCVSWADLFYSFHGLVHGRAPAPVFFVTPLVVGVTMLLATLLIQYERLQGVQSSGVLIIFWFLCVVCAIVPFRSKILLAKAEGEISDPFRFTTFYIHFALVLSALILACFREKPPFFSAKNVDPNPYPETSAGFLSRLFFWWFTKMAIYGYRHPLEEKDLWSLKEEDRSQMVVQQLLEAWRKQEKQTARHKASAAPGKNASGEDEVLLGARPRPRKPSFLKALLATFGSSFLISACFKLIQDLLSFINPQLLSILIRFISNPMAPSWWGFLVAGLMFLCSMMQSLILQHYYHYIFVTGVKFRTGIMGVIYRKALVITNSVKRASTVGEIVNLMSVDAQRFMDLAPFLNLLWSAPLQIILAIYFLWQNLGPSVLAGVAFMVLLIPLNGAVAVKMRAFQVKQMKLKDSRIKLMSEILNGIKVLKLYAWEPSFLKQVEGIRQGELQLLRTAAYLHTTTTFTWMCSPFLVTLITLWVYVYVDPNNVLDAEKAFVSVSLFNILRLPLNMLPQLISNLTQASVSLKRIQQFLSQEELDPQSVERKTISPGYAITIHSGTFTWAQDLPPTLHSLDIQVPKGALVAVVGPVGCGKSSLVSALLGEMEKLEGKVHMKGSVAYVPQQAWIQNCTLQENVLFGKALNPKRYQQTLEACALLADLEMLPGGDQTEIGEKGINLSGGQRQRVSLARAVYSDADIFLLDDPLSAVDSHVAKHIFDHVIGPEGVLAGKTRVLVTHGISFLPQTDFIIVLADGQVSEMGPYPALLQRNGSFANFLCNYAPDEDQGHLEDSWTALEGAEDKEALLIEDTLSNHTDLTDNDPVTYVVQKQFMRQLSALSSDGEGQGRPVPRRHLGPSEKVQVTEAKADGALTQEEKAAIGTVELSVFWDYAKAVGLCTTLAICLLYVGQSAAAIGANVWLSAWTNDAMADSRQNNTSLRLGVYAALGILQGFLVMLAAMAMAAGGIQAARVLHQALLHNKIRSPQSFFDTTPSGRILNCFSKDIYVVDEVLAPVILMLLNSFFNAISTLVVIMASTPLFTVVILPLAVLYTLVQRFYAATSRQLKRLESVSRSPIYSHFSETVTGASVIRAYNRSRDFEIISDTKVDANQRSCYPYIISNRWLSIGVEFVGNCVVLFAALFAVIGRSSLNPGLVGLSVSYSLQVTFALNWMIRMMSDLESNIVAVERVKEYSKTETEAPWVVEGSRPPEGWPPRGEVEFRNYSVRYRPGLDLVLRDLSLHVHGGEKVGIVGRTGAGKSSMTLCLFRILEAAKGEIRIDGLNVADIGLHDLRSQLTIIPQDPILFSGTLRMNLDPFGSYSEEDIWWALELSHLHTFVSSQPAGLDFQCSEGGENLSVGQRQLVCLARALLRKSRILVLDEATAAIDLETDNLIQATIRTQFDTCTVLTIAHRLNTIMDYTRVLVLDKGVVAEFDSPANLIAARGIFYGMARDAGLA
Procedure: (§1) Prior to the assays, HeLa1A1 cells were washed twice with prewarmed (37°C) Hank’s balanced salt solution (HBSS, pH = 7.4). Subsequently, HeLa1A1 cells were pretreated and incubated with DMC (2, 4 or 8 μM) and dissolved in 2 mL of HBSS. The sampling times were selected to ensure that the plots of the amount excreted versus time remained in the linear range. At each time point (0.5, 1.0, 1.5 and 2.0 h), 200 μL of incubation solutions were collected from each well, and an equal volume of loading media was used to replenish each well. Then, the collected samples were each mixed with 100 μL of ice-cold acetonitrile. The supernatants (8.0 μL) were subjected to an ultra high-performance liquid chromatography (UHPLC) analysis after centrifugation (10 min at 13,800 g).
(§2) Furthermore, the excretion rates of generated glucuronides were calculated using Eq (1). In addition, the fraction metabolized (fmet) value was defined as the fraction of the dose metabolized based on Eq (2). V represents the volume of the incubation medium, C represents the concentration of excreted glucuronides, and t represents the incubation time.
(§3) The shRNA plasmids targeting the efflux transporters BCRP, MRP1, MRP3 and MRP4 were constructed using previously described methods. HeLa1A1 cells were transiently transfected with the corresponding shRNA plasmids. The procedures for the establishment of HeLa1A1-BCRP-shRNA cells, HeLa1A1-MRP1-shRNA cells, HeLa1A1-MRP3-shRNA cells and HeLa1A1-MRP4-shRNA cells are detailed in our previous publication. Moreover, levels of the BCRP, MRP1, MRP3 and MRP4 proteins in these constructed HeLa1A1 cells were determined by western blotting assays, as described previously.

BCRP = molecular target: T3, BCRP (Homo sapiens, UniProt Q9UNQ0); test: shRNA-mediated BCRP knock-down, glucuronide excretion in HeLa1A1 cells; assay type: cell-based; set-up: BCRP, MRP1, MRP3, and MRP4 were detected in both wild-type HeLa and HeLa1A1 cells; endogenous in cells; host or cells: HeLa1A1 cells; conditions: BCRP silencing, DMC 4 μM; for reduction of efflux excretion rate: Fig 8C; for increase of intracellular level: Fig 8D; for decrease in fmet value: Fig 8E
T3 sequence (Q9UNQ0 1-655): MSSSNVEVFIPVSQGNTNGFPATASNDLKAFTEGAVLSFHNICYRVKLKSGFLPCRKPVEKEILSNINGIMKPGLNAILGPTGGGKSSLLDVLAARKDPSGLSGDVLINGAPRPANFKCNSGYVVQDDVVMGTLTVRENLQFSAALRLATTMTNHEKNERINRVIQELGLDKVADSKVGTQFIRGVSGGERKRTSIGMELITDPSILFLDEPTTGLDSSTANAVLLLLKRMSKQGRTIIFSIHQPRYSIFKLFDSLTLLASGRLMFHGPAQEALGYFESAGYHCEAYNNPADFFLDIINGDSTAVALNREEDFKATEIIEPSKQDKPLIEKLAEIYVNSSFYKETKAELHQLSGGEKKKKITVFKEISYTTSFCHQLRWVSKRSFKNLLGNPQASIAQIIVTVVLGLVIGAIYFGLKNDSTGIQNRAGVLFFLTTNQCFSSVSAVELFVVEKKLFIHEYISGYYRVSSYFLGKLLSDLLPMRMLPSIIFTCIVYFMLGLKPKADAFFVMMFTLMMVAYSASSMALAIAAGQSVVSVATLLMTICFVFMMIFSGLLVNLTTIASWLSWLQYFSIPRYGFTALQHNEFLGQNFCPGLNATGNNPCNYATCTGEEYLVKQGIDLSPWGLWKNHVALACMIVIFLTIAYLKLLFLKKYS
Procedure: as §1, §2, §3

MRP1 = molecular target: T4, MRP1 (Homo sapiens, UniProt P33527); test: shRNA-mediated MRP1 knock-down, glucuronide excretion in HeLa1A1 cells; assay type: cell-based; conditions: DMC 4 μM; for decrease of efflux excretion rate / decrease of metabolized fraction: MRP1 knock-down; for decrease of efflux excretion rate: Fig 9C; for decrease of metabolized fraction: Fig 9E; for increase in intracellular level: MRP1 silencing, Fig 9D
T4 construct: BCRP, MRP1, MRP3, and MRP4 were detected in both wild-type HeLa and HeLa1A1 cells; endogenous in cells; host or cells: HeLa1A1 cells (MRP1-shRNA versus scrambled shRNA)
T4 sequence (P33527 whole entry): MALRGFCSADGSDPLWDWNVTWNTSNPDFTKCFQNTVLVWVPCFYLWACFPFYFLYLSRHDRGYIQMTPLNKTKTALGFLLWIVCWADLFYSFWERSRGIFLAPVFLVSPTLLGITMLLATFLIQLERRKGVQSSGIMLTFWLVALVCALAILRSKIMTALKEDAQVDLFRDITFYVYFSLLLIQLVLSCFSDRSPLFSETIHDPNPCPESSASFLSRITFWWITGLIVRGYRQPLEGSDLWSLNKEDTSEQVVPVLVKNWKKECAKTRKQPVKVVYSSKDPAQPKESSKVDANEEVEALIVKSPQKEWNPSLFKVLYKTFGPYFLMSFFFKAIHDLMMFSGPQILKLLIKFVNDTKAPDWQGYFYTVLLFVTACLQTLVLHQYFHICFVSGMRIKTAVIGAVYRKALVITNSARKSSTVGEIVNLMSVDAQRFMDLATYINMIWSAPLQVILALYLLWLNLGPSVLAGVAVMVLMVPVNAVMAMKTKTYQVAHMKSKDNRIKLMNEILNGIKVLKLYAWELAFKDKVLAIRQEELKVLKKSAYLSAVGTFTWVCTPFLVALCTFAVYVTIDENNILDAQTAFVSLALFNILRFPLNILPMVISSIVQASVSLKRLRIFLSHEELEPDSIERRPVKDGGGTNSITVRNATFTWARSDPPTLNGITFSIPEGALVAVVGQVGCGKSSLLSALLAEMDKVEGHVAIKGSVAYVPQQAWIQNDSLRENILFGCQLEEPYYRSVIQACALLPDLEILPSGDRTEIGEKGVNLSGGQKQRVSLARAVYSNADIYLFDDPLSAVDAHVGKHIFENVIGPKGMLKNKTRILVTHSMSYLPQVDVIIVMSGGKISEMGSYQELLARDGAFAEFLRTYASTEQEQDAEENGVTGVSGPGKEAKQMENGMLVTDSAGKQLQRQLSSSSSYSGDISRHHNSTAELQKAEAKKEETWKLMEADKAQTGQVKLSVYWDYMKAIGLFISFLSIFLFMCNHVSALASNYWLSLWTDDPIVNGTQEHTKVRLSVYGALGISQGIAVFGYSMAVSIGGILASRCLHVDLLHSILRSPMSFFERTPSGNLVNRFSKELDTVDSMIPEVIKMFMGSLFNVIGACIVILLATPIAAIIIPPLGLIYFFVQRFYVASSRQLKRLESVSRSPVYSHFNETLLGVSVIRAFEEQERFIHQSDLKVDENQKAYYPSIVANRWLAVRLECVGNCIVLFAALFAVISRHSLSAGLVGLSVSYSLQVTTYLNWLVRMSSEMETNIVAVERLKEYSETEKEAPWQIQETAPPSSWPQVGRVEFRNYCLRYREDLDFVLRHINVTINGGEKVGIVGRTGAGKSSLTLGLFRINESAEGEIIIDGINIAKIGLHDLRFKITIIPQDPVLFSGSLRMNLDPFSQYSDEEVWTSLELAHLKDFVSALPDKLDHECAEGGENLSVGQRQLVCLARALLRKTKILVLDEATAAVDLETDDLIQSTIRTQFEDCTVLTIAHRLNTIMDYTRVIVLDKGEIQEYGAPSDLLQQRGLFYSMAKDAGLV
Procedure: as §1, §2, §3

BCRP transporter = test system: BCRP transporter; set-up: method as in PMID 12477054; conditions: cited from earlier work

Row | SMILES | decrease of fmet value (MRP3) | decrease in efflux excretion clearance (MRP3) | increase in intracellular level (MRP3) | reduction of efflux excretion rate (BCRP) | increase of intracellular level (BCRP) | decrease in fmet value (BCRP) | decrease of efflux excretion rate (MRP1) | decrease of metabolized fraction (MRP1) | increase in intracellular level (MRP1) | other results
1 | CC(C)=CCC[C@](C)(O)[C@H]1CC[C@]2(C)[C@@H]1[C@H](O)C[C@@H]1[C@@]3(C)CC[C@H](O)C(C)(C)[C@@H]3[C@@H](O)C[C@]12C [protopanaxatriol] | – | – | – | – | – | – | – | – | – | formation of G1 and G2 (UGT1A1; inhibitor 500 μM): significantly inhibited
2 | COc1cc(/C=C/C(=O)CC(=O)/C=C/c2ccc(O)cc2)ccc1O[C@@H]1O[C@H](C(=O)O)[C@@H](O)[C@H](O)[C@H]1O [G1] | 16.2% | 19.7% | 31.5% | 29.9% | 40.9% | 20.1% | 20.8% | 16.5% | 33.1% | –
3 | Cc1cn(-c2cc(NC(=O)c3ccc(C)c(Nc4nccc(-c5cccnc5)n4)c3)cc(C(F)(F)F)c2)cn1 [Nilotinib, nilotinib] | – | – | – | – | – | – | – | – | – | formation of G1 and G2 (UGT1A1; inhibitor 10 μM): significantly inhibited
4 | COc1cc(/C=C/C(=O)CC(=O)/C=C/c2ccc(O[C@@H]3O[C@H](C(=O)O)[C@@H](O)[C@H](O)[C@H]3O)cc2)ccc1O [G2] | 27.9% | 26.4% | 32.1% | 33.0% | 51.6% | 24.5% | 36.9% | 29.8% | 36.1% | –
5 | COc1ccc2c3c([nH]c2c1)[C@H](CC(C)C)N1C(=O)[C@H](CCC(=O)OC(C)(C)C)NC(=O)[C@@H]1C3 [Ko143] | – | – | – | – | – | – | – | – | – | IC50 (BCRP transporter): 23 nM
6 | CC1(C)[C@@H](O)CC[C@]2(C)[C@H]3C(=O)C=C4[C@@H]5C[C@@](C)(C(=O)O)CC[C@]5(C)CC[C@@]4(C)[C@]3(C)CC[C@@H]12 [glycyrrhetinic acid] | – | – | – | – | – | – | – | – | – | formation of G1 and G2 (UGT1A1; inhibitor 20 μM): significantly inhibited
